From US20110165115A1, “SYNERGISTIC ATTRACTANTS FOR PESTIFEROUS SOCIAL INSECTS” (STERLING INTERNATIONAL INC., priority 2010, published 2011)

Key:
P. dominulus = experiment: Field trapping Experiment 1, Rescue W•H•Y traps; type: in vivo, Polistes dominulus; settings: Exp 1; HIPV added to WHY attractant in the top chamber, or WHY alone
Method: (§1) Three field trapping experiments were carried out during late July to early August 2009, in residential and woody areas around Spokane, Wash., USA, using the newly marketed Rescue® W•H•Y traps (www.rescue.com). As used herein, the W•H•Y trap is a trap in accordance with the description of United States Patent Application Publication No. 2009/0151228. The W•H•Y trap has a top chamber and a bottom chamber. The top chamber is baited with two attractants—one of which is a solid contained in a vial (2-methyl-1-butanol) and the other a liquid mixed with water (acetic acid), herein referred to as the W•H•Y top attractant. The bottom chamber is baited with a liquid attractant (heptyl butyrate) poured onto a cotton pad, herein referred to as the W•H•Y bottom attractant. Separation of the top and bottom attractants (otherwise antagonistic to each other when released from the same chamber) in two chambers was a design feature of this trap and creates two focal attraction sources from one trap for different species of wasps, hornets, and yellowjackets. Traps were hung 1.5-2.0 m above the ground on either the fence or tree branches ca. 5 m apart within each trap line. For each trapping experiment, six sets of traps were deployed with their initial trap positions within each set being randomized. To minimize positional effects and obtain more replications, wasp collections and trap re-randomization were carried out when ≧10-20 wasps were caught in the best trap. Each replicate lasted several days depending on wasp flight activity. Captured wasps were removed from the traps and kept in the zip-bags before taking back to the laboratory for recording of the species, gender status, and catch.
(§2) Experiment 3 (Aug. 5-13, 2009) was conducted to determine the potential behavioral activity of different doses of (E)-4,8-dimethyl-1,3,7-nonatriene alone. The individual (or different doses) HIPVs were loaded into either polyethylene bags or centrifuge tube type of dispensers, and released from the top of the W•H•Y trap chamber. W•H•Y trap attractants (both top and bottom or top only) alone and water (top chamber only) were included in the test as positive and blank controls, respectively. The dispenser types, loading and release rates of the tested semiochemicals are described in Tables 1, 2 and 3.
(§3) Trap catch data were converted to proportion (P) of total captured wasps within each replicate. Data were then transformed by arcsin√P to meet the assumptions of normality and homogeneity of variances for ANOVA. Means were compared by ANOVA followed by the Ryan-Einot-Gabriel-Welsh (REGW) multiple Q test (SPSS 16.0 for Windows) at α=0.05.

P. aurifer = experiment: Field trapping Experiment 1, Rescue W•H•Y traps; type: in vivo, Polistes aurifer; settings: Exp 1; HIPV added to WHY attractant in the top chamber, or WHY alone
Method: as §1, §2, §3

V. consobrina = type: in vivo, Vespula consobrina; settings: Exp 1; HIPV added to WHY attractant in the top chamber, or WHY alone
Method: as §1, with “catch. […]” for “catch.”
as §3

V. atropilosa = type: in vivo, Vespula atropilosa; settings: Exp 1; HIPV added to WHY attractant in the top chamber, or WHY alone
Method: as §1, with “catch. […]” for “catch.”
as §3

V. acadica = experiment: Field trapping Experiment 1, Rescue W•H•Y traps; type: in vivo, Vespula acadica; settings: Exp 1; HIPV added to WHY attractant in the top chamber, or WHY alone
Method: as §1, §2, §3

D. maculata = experiment: Field trapping Experiment 1, Rescue W•H•Y traps; type: in vivo, Dolichovespula maculata; settings: Exp 1; HIPV added to WHY attractant in the top chamber, or WHY alone
Method: as §1
(§4) Experiment 1 (Jul. 22-30, 2009) tested ten synthetic HIPV candidates [(E)-2-hexenal, (Z)-3-hexen-1-ol, (Z)-3-hexenyl acetate, cis-ocimene, linalool, methyl salicylate, geranyl acetate, trans-β-caryophyllene, trans-β-farnesene and (E)-4,8-dimethyl-1,3,7-nonatriene], including several paper wasp EAD-active compounds (see FIG. 2 for details), to determine their potential synergistic effect on the Rescue® W•H•Y trap attractants to paper wasps, yellowjackets, and hornets. Experiment 2 (Aug. 5-13, 2009) tested behavioral responses of the paper wasps and yellowjackets to the Rescue® W•H•Y trap attractants (top attractants only) and its combination with (E)-4,8-dimethyl-1,3,7-nonatriene, one of the EAD-active and behaviorally significant HIPVs, in a dose-response fashion. Experiment 3 (Aug. 5-13, 2009) was conducted to determine the potential behavioral activity of different doses of (E)-4,8-dimethyl-1,3,7-nonatriene alone. The individual (or different doses) HIPVs were loaded into either polyethylene bags or centrifuge tube type of dispensers, and released from the top of the W•H•Y trap chamber. W•H•Y trap attractants (both top and bottom or top only) alone and water (top chamber only) were included in the test as positive and blank controls, respectively. The dispenser types, loading and release rates of the tested semiochemicals are described in Tables 1, 2 and 3.
as §3

V. vulgaris = experiment: Field trapping Experiment 1, Rescue W•H•Y traps; type: in vivo, Vespula vulgaris; settings: Exp 1; HIPV added to WHY attractant in the top chamber, or WHY alone
Method: as §1, §2, §3

V. pensylvanica [1] = experiment: Field trapping Experiment 1, Rescue W•H•Y traps; type: in vivo, Vespula pensylvanica; settings: Exp 1; HIPV added to WHY attractant in the top chamber, or WHY alone
Method: as §1, §2, §3

[2] = system: P. dominulus workers antennae; experiment: GC-EAD of synthetic mixture of known HIPVs; design: species or system Polistes dominulus; settings: 100 ng/μl each in hexane
Method: Aeration samples of the cherry branches (damaged or undamaged/slightly damaged) were injected (3 μl) splitless into a Varian CP-3800 GC equipped with a polar column (HP-INNOWax; 30 m×0.53 mm×1.0 μm film thickness; Agilent Technologies, Wilmington, Del., USA) and a 1:1 effluent splitter that allowed simultaneous flame ionization detection (FID) and electroantennographic detection (EAD) of the European paper wasp (Polistes dominulus) worker antennae to the separated volatile compounds. Helium was used as the carrier gas, and the injector and detector temperatures were 250° C. and 300° C., respectively. Column temperature was 50° C. for 1 min, rising to 240° C. at 10° C./min, and then held for 10 min. The outlet for the EAD was held in a humidified air stream flowing at 0.5 m/sec over the antennal preparation. EAD recordings were made using silver wire-glass capillary electrodes filled with Beadle-Ephrussi Ringer on freshly cut antennae. The antennal signals were stored and analyzed on a PC equipped with a serial IDAC interface box and the program EAD ver. 2.5 (Syntech, Hilversum, The Netherlands). In addition, GC-EAD responses to a synthetic mixture (100 ng/μl each) containing nine known HIPVs including cis-3-hexen-1-ol, cis-3-hexenyl acetate, trans-β-ocimene, (E)-4,8-dimethyl-1,3,7-nonatriene, linalool, methyl salicylate, geranyl acetate, trans-β-caryophyllene and trans-β-farnesene were tested on the P. dominulus workers. (See FIG. 2.) The same chemicals were also tested on beneficial insect antennae from Chrysopa oculata, Myrmeleon crudelis, Podisus maculiventris, and Hippodarnia convergens. (See FIG. 6.) Antennally active peaks in the aeration samples were identified by GC-MS on an HP 6890 GC series coupled with an HP 5973 Mass Selective Detector using the same type of GC column and conditions as described above. Compounds were identified by comparison of retention times with those of authentic standards and with mass spectra of standards.

D. arenaria = experiment: Field trapping Experiment 1, Rescue W•H•Y traps; type: in vivo, Dolichovespula arenaria; settings: Exp 1; HIPV added to WHY attractant in the top chamber, or WHY alone
Method: as §1, §4, §3

V. pensylvanica [3] = settings: background; cited from earlier work
[4] = system: Polistes dominulus worker antennae; experiment: GC-EAD of cherry branch aeration samples; settings: aeration of severely damaged cherry branches; at current release rates
Method: Lapin cherry branches with severely damaged cherries and leaves and undamaged or slightly damaged branches were collected from a cherry orchard at Creston, Canada, on Jul. 29, 2009, and were transported to the Sterling International, Inc. lab (Spokane, Wash.) on the same day and kept at 4° C. before aerations. Headspace volatiles from the cherry branches (damaged or undamaged) were sampled by a battery operated pump and a high density polyacetate oven bag (48.2×59.6 cm Reynolds® Oven Bag; Richmond, Va., USA) enclosure with one activated charcoal filter tube in the air inlet, on Jul. 30, 2009. The volatiles in the enclosure were trapped on one Porapak Q tube (50/80 mesh; 30 mg in Teflon tube: 3 mm×35 mm) for 2.5 hr (airflow 300 ml/min) and extracted with 1 ml redistilled pentane. Aeration samples of the cherry branches (damaged or undamaged/slightly damaged) were injected (3 μl) splitless into a Varian CP-3800 GC equipped with a polar column (HP-INNOWax; 30 m×0.53 mm×1.0 μm film thickness; […] Helium was used as the carrier gas, and the injector and detector temperatures were 250° C. and 300° C., respectively. Column temperature was 50° C. for 1 min, rising to 240° C. at 10° C./min, and then held for 10 min. The outlet for the EAD was held in a humidified air stream flowing at 0.5 m/sec over the antennal preparation. EAD recordings were made using silver wire-glass capillary electrodes filled with Beadle-Ephrussi Ringer on freshly cut antennae. The antennal signals were stored and analyzed on a PC equipped with a serial IDAC interface box and the program EAD ver. 2.5 (Syntech, Hilversum, The Netherlands). […] (See FIG. 2.) The same chemicals were also tested on beneficial insect antennae from Chrysopa oculata, Myrmeleon crudelis, Podisus maculiventris, and Hippodarnia convergens. (See […] active peaks in the aeration samples were identified by GC-MS on an HP 6890 GC series coupled with an HP 5973 Mass Selective Detector using the same type of GC column and conditions as described above. Compounds were identified by comparison of retention times with those of authentic standards and with mass spectra of standards.

yellowjackets = experiment: Field trapping Experiment 1, top chamber catches; type: in vivo; settings: Exp 1; HIPV combined with W•H•Y attractant (acetic acid and 2-methyl-1-butanol) in the top chamber
Method: as §1
Experiment 3 (Aug. 5-13, 2009) was conducted to determine the potential behavioral activity of different doses of (E)-4,8-dimethyl-1,3,7-nonatriene alone. The individual (or different doses) HIPVs were loaded into either polyethylene bags or centrifuge tube type of dispensers, and released from the top of the W•H•Y trap chamber. […]

V. vidua = settings: background; cited from earlier work
[5] = system: yellowjackets occurring in the Eastern United States, hornets and paper wasps; settings: background; cited from earlier work

| Structure (SMILES) | Total Paper Wasps P. dominulus (P. dominulus) | Total Paper Wasps P. aurifer (P. aurifer) | Total Yellowjacket Catches V. consobrina (V. consobrina) | Total Yellowjacket Catches V. atropilosa (V. atropilosa) | Total Yellowjacket Catches V. acadica (V. acadica) | Total Yellowjacket Catches D. maculata (D. maculata) | Total Yellowjacket Catches V. vulgaris (V. vulgaris) | Total Yellowjacket Catches V. pensylvanica (V. pensylvanica [1]) | EAD response of worker antennae [2] | Total Yellowjacket Catches D. arenaria (D. arenaria) | attraction (V. pensylvanica [3]) | EAD response of worker antennae [4] | effect on trap catches of yellowjackets in the top chambers (yellowjackets) | attraction (V. vidua) | attraction [5] |
| --- | --- | --- | --- | --- | --- | --- | --- | --- | --- | --- | --- | --- | --- | --- | --- |
| C=C1CC/C=C(\C)CC[C@@H]2[C@@H]1CC2(C)C (relative stereo) [β-Caryophyllene, trans-β-caryophyllene] | 35 | 12 | 1 | 1 | 2 | 0 | 51 | 234 | No repeatable EAD-responses | 5 | – | – | – | – | – |
| CC=CC=CCOC(=O)CCC [2,4-hexadienyl butyrate] | – | – | – | – | – | – | – | – | – | – | powerfully attractive | – | – | – | – |
| C=CC(=C)CC/C=C(\C)CCC=C(C)C [E-β-Farnesene, trans-β-farnesene] | 29 | 13 | 0 | 1 | 0 | 8 | 36 | 321 | No repeatable EAD-responses | 10 | – | – | – | – | – |
| C=C/C(C)=C/CC=C(C)C [Ocimene, cis-ocimene] | 29 | 17 | 0 | 2 | 0 | 17 | 52 | 402 | – | 11 | – | did not elicit significant EAD-responses | significant synergistic effect | – | – |
| CCCCC/C=C\C=C\C(=O)OCC [ethyl (E,Z)-2,4-decadienoate] | – | – | – | – | – | – | – | – | – | – | – | – | – | attracted | – |
| CCCCCCCOC(=O)CCC [heptyl butyrate] | – | – | – | – | – | – | – | – | – | – | as attractive | – | – | – | ineffective |
